Test results: US7692011B2, “8-hydroxy and 8-mercapto quinazolinones” (Prana Biotechnology Limited, priority 2002, dated 2010)

Experiment: Assay 13 Blood brain barrier penetration (rat brain perfusion)
Assay type: in vivo
Details: 50 μM infusion, 1.5 minutes
Method: Assay 13. Blood Brain Barrier Penetration
The test compounds were dissolved in DMSO and phosphate buffered saline (PBS) was added to obtain solutions at a concentration of 50 μM in PBS containing 1.25-2.5% DMSO. A trace amount of ^14C-sucrose was added to each stock infusion solution (approx 0.01 μCi/mL) to act as Blood-Brain Barrier (BBB)-impermeable marker in order to assess the integrity of the BBB during each perfusion and to estimate the volume of the residual vascular space (RVS) in samples of brain tissue (ie: the volume of fluid remaining inside the lumen of blood vessels at the end of each perfusion). […]
After 1.5 minutes, the infusion pump automatically stopped, the cannula was withdrawn from the carotid artery and a sample of the infusion solution (1-1.5 mL) was then collected from the tip of the infusion cannula. […] The brain tissue samples from each animal were frozen at −30° C., homogenized and weighed aliquots analysed by LC-MS to give total brain concentration. […]
Small aliquots from each brain tissue sample and the corresponding infusion solution were analysed by liquid scintillation counting to determine the level of ^14C-sucrose. The residual vascular space (RVS) in each brain tissue sample was calculated by dividing the measured concentration of sucrose in brain tissue (dpm/mg) by its concentration in the corresponding infusion solution (dpm/μL). […]

- Assay 13 Rat brain perfusion (brain uptake ratio): >50%
Structure (SMILES): O=c1c2c(Cl)cc(Cl)c(O)c2ncn1C1CC1 [PBT-1061, 5,7-Dichloro-3-cyclopropyl-8-hydroxy-3H-quinazolin-4-one]
